The text below walks through data of US7700775B2, “Compounds and compositions for delivering active agents” (Emisphere Technologies, Inc., priority 2001, dated 2010).

For orientation: melting point means the temperature of the solid-liquid transition.

Counter-ions that a name gives are not always drawn.

One data set can be described thus: Oral BIBN4096BS Delivery (plasma BIBN4096BS by LC/MS/MS after oral gavage with delivery agent compound). The note with it: previous studies; baseline (no delivery agent stated).
Method: Oral gavage (PO) dosing solutions of delivery agent compound and the Calcitonin gene-related peptide antagonist, 1-Piperidinecarboxamide. […] (BIBN4096BS) in water were prepared. […] The final dosing solutions were prepared by mixing the delivery agent compound with a BIBN4096BS stock solution and diluting to the desired volume (usually 1.0 mL). If necessary, the pH of the mixture was adjusted by the addition of aliquots of aqueous hydrochloric acid solution of an appropriate normality until the final pH of the dosing solution was below 7.0. The final compound amounts per dose were 25 mg/kg of BIBN4096BS, 200 mg/kg of delivery agent compound, in a total volume of 1 mL/kg.
The typical dosing and sampling protocols were as follows. Male Sprague-Dawley rats weighing between 200-250 g were fasted for 24 hours and administered ketamine (44 mg/kg) and chlorpromazine (1.5 mg/kg) 15 minutes prior to dosing. A dosing group of five rats was administered one of the dosing solutions. For oral gavage (PO) dosing, an 11 cm Rusch 8 French catheter was adapted to a 1 mL syringe with a pipette tip. The syringe was filled with dosing solution by drawing the solution through the catheter, which was then wiped dry. […] Plasma BIBN4096BS concentrations were quantified by using a liquid chromatography/mass spectrometry/mass spectrometry assay method using UV detection. […]
As to `NCCCCC(NC(=O)C(Cc1cc(Br)c(O)c(Br)c1)NC(=O)N1CCC(N2Cc3ccccc3NC2=O)CC1)C(=O)N1CCN(c2ccncc2)CC1` (stereo not drawn) [BIBN4096BS, 1-Piperidinecarboxamide. N-[2-[[5-amino-1-[[4-(4-pyridinyl)-1-piperazinyl)carbonyl]pentyl]amino]-1-[(3,5-dibromo-4-hydroxyphenyl)methyl]-2-oxoethyl]-4(1,4-dihydro-2-oxo-3(2H0-quinazolinyl)-.[R-(R*,S*)]], the “baseline values of plasma BIBN4096BS” value is given as “about 10 ng/mL”.

Assay in a further data set: not given
Conditions: not given
`CCN(CC)CCNC(=O)c1cc(Cl)ccc1O` (as salt: citrate) [Compound 1, N-[2-(diethylamino)ethyl]-5-chloro-2-hydroxybenzamide Mono-citrate]: the melting point lay within 107 to 109 °C.

Take `CCN(CC)CCNC(=O)c1ccccc1O` (as salt: citrate) [Compound 3, N-[2-(diethylamino)ethyl]-2-hydroxybenzamide Mono-citrate]: the melting point was in the range of 111 to 113 °C.

Consider `CN(C)c1ccc(CNC(=O)c2ccccc2O)cc1` [Compound 4, N-(4-dimethylaminobenzyl) salicylamide], for which the melting point lay within 129 to 132 °C.

Compound `NC(=O)c1ccc(CCCCCCN2CCOCC2)cc1O` [Compound 5, 4-(6-morpholin-4-ylhexyl)-salicylamide] gave a melting point of 70 to 73 °C.

Regarding `COc1ccc(C(=O)NCCCCCCCCN)c(O)c1` [Compound 18, N-(2-hydroxy-4-methoxybenzoyl)-1,8-diaminooctane], the melting point fell in the range of 151 to 153 °C.
